From patent US5023263A, “42-oxorapamycin” (American Home Products Corporation, priority 1990, dated 1991)
Converted amounts (≈) assume the structure as drawn.

What was measured:
transplant rejection = conditions: cited from earlier work
[1] = tested on: experimental allergic encephalomyelitis; conditions: model for multiple sclerosis; cited from earlier work
Candida albicans = conditions: in vitro and in vivo; cited from earlier work
adjuvant arthritis = conditions: model for rheumatoid arthritis; cited from earlier work
[2] = tested on: Candida albicans ATCC 38247; assay: antifungal plate assay (MIC); format: cell-based; conditions: ATCC38247, plate disk assay
Method: (§1) The following represents the typical assay procedure used. Compound to be tested was placed on sterile dried 1/4" plate disks, and allowed to dry. Agar plates were seeded with fungi and allowed to solidify. The impregnated disks were placed on the seeded Agar surface and incubated for the time required for the particular culture. Results are expressed in MIC (μg/ml) to inhibit growth.

[3] = tested on: Candida albicans ATCC 10231; assay: antifungal plate assay (MIC); format: cell-based; conditions: ATCC10231, plate disk assay
Method: as §1

[4] = tested on: Candida albicans ATCC 38248; assay: antifungal plate assay (MIC); format: cell-based; conditions: ATCC38248, plate disk assay
Method: as §1

Candida albicans 3669 = assay: antifungal plate assay (MIC); format: cell-based; conditions: strain 3669, plate disk assay
Method: as §1

[5] = tested on: Candida albicans ATCC 38246; assay: antifungal plate assay (MIC); format: cell-based; conditions: ATCC38246, plate disk assay
Method: as §1

[6] = tested on: mixed lymphocyte reaction (popliteal lymph node); assay: in vivo popliteal lymph node (PLN) test procedure (mixed lymphocyte reaction); parameters: species or system mice (irradiated BALB/c spleen cells into C3H recipients); conditions: for PLN (ratio): Table 1, daily p.o. Day 0 to Day 4
Method: (§2) Immunosuppressive activity was evaluated in an in vitro standard pharmacological test procedure to measure lymphocyte proliferation (LAF) and in two in vivo standard pharmacological test procedures. The first in vivo procedure was a popliteal lymph node (PLN) test procedure which measured the effect of compounds of this invention on a mixed lymphocyte reaction and the second in vivo procedure evaluated the survival time of a pinch skin graft.
A mixed lymphocyte reaction (MLR) occurs when lymphoid cells from genetically distinct animals are combined in tissue culture. Each stimulates the other to undergo blast transformation which results in increased DNA synthesis that can be quantified by the incorporation of tritiated thymidine. Since stimulating a MLR is a function of disparity at Major Histocompatibility antigens, an in vivo popliteal lymph node (PLN) test procedure closely correlates to host vs. graft disease. Briefly, irradiated spleen cells from BALB/c donors are injected into the right hind foot pad of recipient C3H mice. The drug is given daily, p.o. from Day 0 to Day 4. On Day 3 and Day 4, tritiated thymidine is given i.p., b.i.d. On Day 5, the hind popliteal lymph nodes are removed and dissolved, and radioactivity counted. The corresponding left PLN serves as the control for the PLN from the injected hind foot. Percent suppression is calculated using the non-drug treated animals as allogenic control. […] Results are expressed by the following ratio: [formula]

IgE-like antibodies = conditions: in vivo; cited from earlier work
pinch skin graft = assay: survival time of pinch skin graft; format: in vivo, mice (male DBA/2 donors, male BALB/c recipients)
Method: as §2
The second in vivo test procedure is designed to determine the survival time of pinch skin graft from male DBA/2 donors transplanted to male BALB/c recipients. The method is adapted from Billingham R. E. and Medawar P. B., J. Exp. Biol. 28:385-402, (1951). Briefly, a pinch skin graft from the donor is grafted on the dorsum of the recipient as a homograft, and an autograft is used as control in the same region. […] Untreated recipients serve as rejection control. The graft is monitored daily and observations are recorded until the graft becomes dry and forms a blackened scab. This is considered as the rejection day. The mean graft survival time (number of days ±S.D.) of the drug treatment group is compared with the control group.

Compound	inhibition of transplant rejection (transplant rejection)	effect in experimental allergic encephalomyelitis model [1]	antifungal activity (Candida albicans)	effect in adjuvant arthritis model (adjuvant arthritis)	MIC [2]	MIC [3]	MIC [4]	MIC (Candida albicans 3669)	MIC [5]	Percent suppression (PLN) ([6]; 6 mg/kg, p.o., vs non-drug treated allogenic control)	PLN (ratio) [6]	inhibition of formation of IgE-like antibodies (IgE-like antibodies)	PLN test result in words ([6]; interpretation of negative PLN ratio)	Skin Graft survival time (days + SD) (pinch skin graft; mean ± S.D., intraperitoneally)	survival time of the skin graft, in words (pinch skin graft; vs rejection within 6-7 days without immunosuppressive agent)
CO[C@H]1C[C@@H]2CC[C@@H](C)[C@@](O)(O2)C(=O)C(=O)N2CCCC[C@H]2C(=O)O[C@H]([C@H](C)C[C@@H]2CC[C@@H](O)[C@H](OC)C2)CC(=O)[C@H](C)/C=C(\C)[C@@H](O)[C@@H](OC)C(=O)[C@H](C)C[C@H](C)/C=C/C=C/C=C/1C [Rapamycin, rapamycin]	effective in inhibiting transplant rejection	effective	antifungal activity	effective	0.003 µg/mL (≈ 0.00328 µM)	0.003 µg/mL (≈ 0.00328 µM)	0.006 µg/mL (≈ 0.00656 µM)	0.025 µg/mL (≈ 0.0273 µM)	0.025 µg/mL (≈ 0.0273 µM)	86%	1.0	effectively inhibited			
CO[C@H]1C[C@@H]2CC[C@@H](C)[C@@](O)(O2)C(=O)C(=O)N2CCCC[C@H]2C(=O)O[C@H]([C@H](C)C[C@@H]2CCC(=O)[C@H](OC)C2)CC(=O)[C@H](C)/C=C(\C)[C@@H](O)[C@@H](OC)C(=O)[C@H](C)C[C@H](C)/C=C/C=C/C=C/1C [42-oxorapamycin]					0.125 µg/mL (≈ 0.137 µM)	0.006 µg/mL (≈ 0.00658 µM)	0.025 µg/mL (≈ 0.0274 µM)	0.05 µg/mL (≈ 0.0548 µM)	0.05 µg/mL (≈ 0.0548 µM)		-0.93		may cause T cell proliferation	10.17 ± 0.41 days	increased survival time
